From US12440531B2, “Composition for use in improving endothelial function by enhancing flow mediated dilation” (SOCIETE DES PRODUITS NESTLE S.A., priority 2019, dated 2025)

What was measured:
L. johnsonii esterase = assay: Substrate specificity with 4-nitrophenyl derivatives; format: biochemical, Lactobacillus johnsonii; details: substrate 0.2 mM, sodium phosphate buffer pH 6.0, 37° C., 10 min, absorbance 410 nm
Description: The substrate specificity of L. johnsonii esterase was studied using different 4-nitrophenyl derivatives. […] The reactions were carried out in sodium phosphate buffer pH 6.0 at 37° C. for 10 min. The substrates were used at concentration of 0.2 mM and enzyme at 0.01 U/mg substrate. The measures were monitored each 30 seconds. The absorbance was set at 410 nm.

human vascular function = details: pure 5-CQA at 450 mg and 900 mg, 24 subjects; cited from earlier work

Row | SMILES | transformation as substrate of L. johnsonii esterase (L. johnsonii esterase) | effect on human vascular function (human vascular function)
1 | CCCC(=O)Oc1ccc([N+](=O)[O-])cc1 [4-nitrophenyl butyrate] | best substrate | 
2 | CCCCCCCCCCCC(=O)Oc1ccc([N+](=O)[O-])cc1 [4-nitrophenyl dodecanoate] | no transformation | 
3 | O=C(/C=C/c1ccc(O)c(O)c1)O[C@@H]1C[C@](O)(C(=O)O)C[C@@H](O)[C@H]1O [Dose 5-CQA, 5-CQA] |  | did not show a significant effect
